Entries after “also recorded” stand apart in the source; their conditions may differ. Like-named read-outs stand apart in the source and are kept apart here. Square brackets hold non-standard residues; d marks the D form. Ends that are not written are not given here. * marks the point of attachment. Biotin = O=C1N[C@H]2[C@H](CS[C@H]2CCCCC(=O)*)N1; code O = not defined here; Ahx = NCCCCCC(=O)O; For = O=C*
Test system: antibodies in TETAQUIN® (anti-TTd antibodies)
Format: binding, human
Settings: for binding to TETAQUIN (screen of overlapping 22-mer TTx peptides): FIG. 3 (α-chain), FIG. 4 (β-chain)
[1] = Table 4, antibody source not given
[2] = Table 2, length variants of peptide β-32, section 'With linker', […] diluted 800x, OD at 415 nm
[3] = Table 2, length variants of peptide β-32, section 'Without linker' (sequence listed without Z O), […]
[4] = Table 3, further length variants and Lys(formyl) variants, […], neg. control OD 0.30

With “F I G I T E L K K L E S K I Z Z O (FIGITELKKLESKI[Ahx][Ahx]K(Biotin))” the “ELISA OD, effect of longer spacer and C- versus N-terminal biotinylation” value [1] was 0.79.
In the case of KALNPKEIEKLYTSYLSITFLRZO [β54], the “binding to TETAQUIN (screen of overlapping 22-mer TTx peptides)” value (shortened to “binding to TETAQUIN”) is reported as “good binding; also recorded: antibodies present”.
“L K K L E S K I Z O (LKKLESKI-{Ahx-code O}; reading uncertain) [P29]” was tested, and the OD [2] was 0.2 and the OD [3] was 0.2.
Substance “T E L K K L E S Z O (TELKKLES-{Ahx-code O}; reading uncertain) [P30]” has an OD [2] of 0.2 and an OD [3] of 0.2.
In the case of “FIGITELKKLESKINKVFST Z O [0925-52]”, the OD [4] is reported as 1.85.
“G I T E L K K L Z O (GITELKKL-{Ahx-code O}; reading uncertain) [P31]” showed an OD [2] of 0.2 and an OD [3] of 0.2.
“F I G I T E L K K L E S K I N K V Z Z O (FIGITELKKLESKINKV[Ahx][Ahx]K(Biotin))” was tested, and the “ELISA OD, effect of longer spacer and C- versus N-terminal biotinylation” value [1] was 0.68.
In the case of “I G I T E L K K L E S K I N Z O (IGITELKKLESKIN[Ahx]K(Biotin)) [0925-58]”, the OD [4] is reported as 1.45.
In the case of ELGKKFNIKTRLSYFSMNHDPVZO [α31], the “binding to TETAQUIN” value is reported as “good binding; also recorded: antibodies present”.
In the case of “QYIKANSKFIGITELKKLES Z O (QYIKANSKFIGITELKKLES-{Ahx-code O}; reading uncertain) [P3]”, the OD [2] is reported as 1.1 and the OD [3] is reported as 1.1.
“I K A N S K F I Z O (IKANSKFI-{Ahx-code O}; reading uncertain) [P35]” was tested, and the OD [2] was 0.2 and the OD [3] was 0.2.
Substance “F I G I T E L K Z O (FIGITELK-{Ahx-code O}; reading uncertain) [P32]” has an OD [2] of 0.2 and an OD [3] of 0.2.
With “Q Y I K A N S K F I Z O (QYIKANSKFI-{Ahx-code O}; reading uncertain) [P28]” the OD [2] was 0.2 and the OD [3] was 0.2.
With “S K F I G I T E Z O (SKFIGITE-{Ahx-code O}; reading uncertain) [P33]” the OD [2] was 0.2 and the OD [3] was 0.2.
In the case of “F I G I T E L J J L E S K I Z O [0925-67, J = Lys(formyl)]”, the OD [4] is reported as 1.15.
For “F I G I T E L K K L E S K I N K V Z O (FIGITELKKLESKINKV[Ahx]K; not fully specified (residue 19); also: O: biotin modification, exact residue form not clear) [0925-55]”, the OD [4] was 2.00.
With “I K A N S K F I G I T E L K K L E S Z O (IKANSKFIGITELKKLES-{Ahx-code O}; reading uncertain) [P5]” the OD [2] was 0.9 and the OD [3] was 0.9.
“S K F I G I T E L K K L E S K I Z O (SKFIGITELKKLESKI-{Ahx-code O}; reading uncertain) [P7]” showed an OD [2] of 1.15 and an OD [3] of 1.15.
With “A N S K F I G I T E L K K L Z O (ANSKFIGITELKKL-{Ahx-code O}; reading uncertain) [P13]” the OD [2] was 0.6 and the OD [3] was 0.6.
In the case of “J Z Z SKFIGITELKKLESKINKVF (SKFIGITELKKLESKINKVF) [J = Biotin (N-terminal), Z = Ahx]”, the “ELISA OD, effect of longer spacer and C- versus N-terminal biotinylation” value [1] is reported as 0.47.
In the case of “A N S K F I G I T E L K K L E S Z O (ANSKFIGITELKKLES-{Ahx-code O}; reading uncertain) [P8]”, the OD [2] is reported as 0.85 and the OD [3] is reported as 0.85.
“G I T E L K K L E S Z O (GITELKKLES-{Ahx-code O}; reading uncertain) [P23]” showed an OD [2] of 0.25 and an OD [3] of 0.25.
“F I G I T E L K K L E S J I Z O (FIGITELKKLESK(For)I[Ahx]K; not fully specified (residue 16)) [0925-66, J = Lys(formyl)]” gave an OD [4] of 2.10.
For TSYLSITFLRDFWGNPLRYDTEZO [β55], the “binding to TETAQUIN” value was “good binding; also recorded: antibodies present”.
In the case of IGALETTGVVLLLEYIPEITLPZO [β18], the “binding to TETAQUIN” value is reported as “good binding; also recorded: antibodies present”.
In the case of “I K A N S K F I G I Z O (IKANSKFIGI-{Ahx-code O}; reading uncertain) [P27]”, the OD [2] is reported as 0.2 and the OD [3] is reported as 0.2.
For “I K A N S K F I G I T E L K K L Z O (IKANSKFIGITELKKL-{Ahx-code O}; reading uncertain) [P9]”, the OD [2] was 0.6 and the OD [3] was 0.6.
Substance “I K A N S K F I G I T E L K Z O (IKANSKFIGITELK-{Ahx-code O}; reading uncertain) [P14]” has an OD [2] of 0.2 and an OD [3] of 0.2.
Work on “I K A N S K F I G I T E Z O (IKANSKFIGITE-{Ahx-code O}; reading uncertain) [P20]” yielded an OD [2] of 0.2 and an OD [3] of 0.2.
“F I G I T E L K K L E S K I Z O (FIGITELKKLESKI-{Ahx-code O}; reading uncertain) [P11]” was tested, and the OD [2] was 1.0 and the OD [3] was 1.0.
For “A N S K F I G I Z O (ANSKFIGI-{Ahx-code O}; reading uncertain) [P34]”, the OD [2] was 0.2 and the OD [3] was 0.2.
In the case of “E L K K L E S K I N K V F S Z O [0925-62]”, the OD [4] is reported as 0.35.
“L K K L E S K I N K V F S T Z O (LKKLESKINKVFST[Ahx]K(Biotin)) [0925-63]” showed an OD [4] of 0.40.
“A N S K F I G I T E L K Z O (ANSKFIGITELK-{Ahx-code O}; reading uncertain) [P19]” showed an OD [2] of 0.2 and an OD [3] of 0.2.
For “F I G I T E L K K L E S K I N K Z Z O (FIGITELKKLESKINK[Ahx][Ahx]K(Biotin))”, the “ELISA OD, effect of longer spacer and C- versus N-terminal biotinylation” value [1] was 0.65.
In the case of SLTDLGGELCIKIKNEDLTFIAZO [β1], the “ELISA OD, effect of longer spacer and C- versus N-terminal biotinylation” value is reported as 0.12.
Substance “F I G I T E L K K L E S K I N K Z O (FIGITELKKLESKINK[Ahx]K(Biotin)) [0925-56]” has an OD [4] of 1.55.
In the case of “F I G I T E L K K L E S K I N K V F S Z O [0925-53]”, the OD [4] is reported as 1.90.
Substance “Q Y I K A N S K F I G I Z O (QYIKANSKFIGI-{Ahx-code O}; reading uncertain) [P21]” has an OD [2] of 0.2 and an OD [3] of 0.2.
“G I T E L K K L E S K I Z O (GITELKKLESKI-{Ahx-code O}; reading uncertain) [P16]” showed an OD [2] of 0.45 and an OD [3] of 0.45.
For “F I G I T E L J K L E S K I Z O [0925-64, J = Lys(formyl)]”, the OD [4] was 1.70.
Substance “A N S K F I G I T E Z O (ANSKFIGITE-{Ahx-code O}; reading uncertain) [P26]” has an OD [2] of 0.2 and an OD [3] of 0.2.
In the case of “J Z Z F I G I T E L K K L E S K I N K V F”, the “ELISA OD, effect of longer spacer and C- versus N-terminal biotinylation” value [1] is reported as 0.22.
For “F I G I T E L K K L E S Z O (FIGITELKKLES-{Ahx-code O}; reading uncertain) [P17]”, the OD [2] was 0.45 and the OD [3] was 0.45.
In the case of “A N S K F I G I T E L K K L E S K I Z O (ANSKFIGITELKKLESKI-{Ahx-code O}; reading uncertain) [P4]”, the OD [2] is reported as 1.05 and the OD [3] is reported as 1.05.
With “T E L K K L E S K I Z O (TELKKLESKI-{Ahx-code O}; reading uncertain) [P22]” the OD [2] was 0.2 and the OD [3] was 0.2.
With J Z F I G I T E L K K L E S K I N K V F the “ELISA OD, effect of longer spacer and C- versus N-terminal biotinylation” value [1] was 0.17.
In the case of “IKANSKFIGITELKKLESKI Z O (IKANSKFIGITELKKLESKI-{Ahx-code O}; reading uncertain) [P2]”, the OD [2] is reported as 1.2 and the OD [3] is reported as 1.2.
“Q Y I K A N S K F I G I T E L K K L Z O (QYIKANSKFIGITELKKL-{Ahx-code O}; reading uncertain) [P6]” gave an OD [2] of 0.75 and an OD [3] of 0.75.
KFNAYLANKWVFITITNDRLSSZO [β48] was tested, and the “binding to TETAQUIN” value was “good binding; also recorded: antibodies present”.
“T E L K K L E S K I N K V F Z O (TELKKLESKINKVF[Ahx]K(Biotin)) [0925-61]” was tested, and the OD [4] was 0.35.
For “J Z SKFIGITELKKLESKINKVF”, the “ELISA OD, effect of longer spacer and C- versus N-terminal biotinylation” value [1] was 0.28.
With “F I G I T E L K J L E S J I Z O [0925-69, J = Lys(formyl)]” the OD [4] was 1.65.
Substance “F I G I T E L K K L E S K I N Z O (FIGITELKKLESKIN[Ahx]K(Biotin)) [0925-57]” has an OD [4] of 1.65.
“S K F I G I T E L K K L E S Z O (SKFIGITELKKLES-{Ahx-code O}; reading uncertain) [P12]” was tested, and the OD [2] was 0.8 and the OD [3] was 0.8.
With “F I G I T E L K K L E S K I N Z Z O (FIGITELKKLESKIN[Ahx][Ahx]K(Biotin))” the “ELISA OD, effect of longer spacer and C- versus N-terminal biotinylation” value [1] was 0.64.
With “F I G I T E L J J L E S J I Z O [0925-70, J = Lys(formyl)]” the OD [4] was 1.00.
“S K F I G I T E L K Z O (SKFIGITELK-{Ahx-code O}; reading uncertain) [P25]” showed an OD [2] of 0.2 and an OD [3] of 0.2.
Work on “G I T E L K K L E S K I N K Z O (GITELKKLESKINK[Ahx]K(Biotin)) [0925-59]” yielded an OD [4] of 0.75.
Substance “Q Y I K A N S K F I G I T E L K Z O (QYIKANSKFIGITELK-{Ahx-code O}; reading uncertain) [P10]” has an OD [2] of 0.25 and an OD [3] of 0.25.
For “Q Y I K A N S K Z O (QYIKANSK-{Ahx-code O}; reading uncertain) [P36]”, the OD [2] was 0.2 and the OD [3] was 0.2.
Work on “S K F I G I T E L K K L Z O (SKFIGITELKKL-{Ahx-code O}; reading uncertain) [P18]” yielded an OD [2] of 0.45 and an OD [3] of 0.45.
“F I G I T E L K K L Z O (FIGITELKKL-{Ahx-code O}; reading uncertain) [P24]” showed an OD [2] of 0.35 and an OD [3] of 0.35.
